Source: ChEMBL document CHEMBL1144516, “Synthesis and biological activities of analogs of D-glucosyl-l-tyrosine, a humoral factor that stimulates transcription of the acyl-CoA binding protein in the pheromone gland of the Silkmoth, Bombyx mori” (Bioorg Med Chem, 2007)
Active and inactive are the calls of the source. No cut-off for these calls is given here.

Tested on: Bombyx mori
Assay: Stimulation of transcription of acyl-CoA binding protein in pheromone gland of Silkmoth P50 at 0.2 mg after 18 hrs
Type: functional, organism-based

Activity | SMILES
inactive | N[C@H](Cc1ccc(O[C@H]2O[C@@H](CO)[C@H](O)[C@@H](O)[C@@H]2O)cc1)C(=O)O
Active | N[C@@H](Cc1ccc(O[C@@H]2O[C@H](CO)[C@H](O)[C@H](O)[C@H]2O)cc1)C(=O)O
inactive | N[C@@H](Cc1ccc(O[C@H]2O[C@@H](CO)[C@H](O)[C@@H](O)[C@@H]2O)cc1)C(=O)O
inactive | N[C@H](Cc1ccc(OC2O[C@H](CO)[C@@H](O)[C@H](O)[C@H]2O)cc1)C(=O)O (stereo not given in full)
inactive | N[C@H](Cc1ccc(O[C@@H]2O[C@H](CO)[C@H](O)[C@H](O)[C@H]2O)cc1)C(=O)O
